In the supplement of paper PMC4862054:

What was measured:
Details in all cases: incubation time: 72 h
BT-474 [1] = assay: drug sensitivity score (DSS), CellTox Green (DSS (AUC-based score)); higher = stronger drug effect (viability inhibition or cytotoxicity); extreme values may be limits of the assay
Summary of the method: (§1)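 Each compound occupied 5 concentrations in 10-fold steps over its own 10,000-fold range in 384-well plates, into which breast cancer cell lines were seeded as 20 µl suspension. Following 72 h of incubation, CellTox Green fluorescence (485/520 nm) was measured, and CellTiter-Glo luminescence was measured after 10 min at room temperature. Plates were individually normalised to 0.1 % DMSO and a positive kill control. From the area under the fitted dose-response curve, a drug sensitivity score was calculated.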

BT-549 [2] = assay: as above
Summary of the method: as §1

CAL-51 = assay: as above
Summary of the method: as §1

DU-4475 = assay: as above
Summary of the method: as §1

HCC1599 [3] = assay: as above
Summary of the method: as §1

HCC1937 [4] = assay: as above
Summary of the method: as §1

HDQ-P1 [5] = assay: as above
Summary of the method: as §1

MCF-10A = assay: as above
Summary of the method: as §1

MDA-MB-436 [6] = assay: as above
Summary of the method: as §1

MDA-MB-468 [7] = assay: as above
Summary of the method: as §1

MFM-223 [8] = assay: as above
Summary of the method: as §1

Hs578T = assay: as above
Summary of the method: as §1

BT-474 [9] = assay: drug sensitivity score (DSS), CellTiter-Blue viability (DSS (AUC-based score)); higher = stronger viability inhibition; extreme values may be limits of the assay
Description: (§2)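 DSRT with the CellTiter-Blue (resazurin reduction) viability readout, fluorescence 560/590 nm, 72 h incubation. Plates were normalised to DMSO and benzethonium chloride controls. DSS is computed from the area under the fitted dose-response curve (5 or 9 concentrations).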

BT-549 [10] = assay: as above
Description: as §2

CAL-120 = assay: as above
Description: as §2

CAL-148 = assay: as above
Description: as §2

CAL-85-1 = assay: as above
Description: as §2

HCC1599 [11] = assay: as above
Description: as §2

HCC1937 [12] = assay: as above
Description: as §2

HDQ-P1 [13] = assay: as above
Description: as §2

MDA-MB-231 = assay: as above
Description: as §2

MDA-MB-436 [14] = assay: as above
Description: as §2

MDA-MB-453 = assay: as above
Description: as §2

MDA-MB-468 [15] = assay: as above
Description: as §2

MFM-223 [16] = assay: as above
Description: as §2

SK-BR-3 = assay: as above
Description: as §2

Row | Structure (SMILES) | drug sensitivity score (BT-474 [1]) | drug sensitivity score (BT-549 [2]) | drug sensitivity score (CAL-51) | drug sensitivity score (DU-4475) | drug sensitivity score (HCC1599 [3]) | drug sensitivity score (HCC1937 [4]) | drug sensitivity score (HDQ-P1 [5]) | drug sensitivity score (MCF-10A) | drug sensitivity score (MDA-MB-436 [6]) | drug sensitivity score (MDA-MB-468 [7]) | drug sensitivity score (MFM-223 [8]) | drug sensitivity score (Hs578T) | drug sensitivity score (BT-474 [9]) | drug sensitivity score (BT-549 [10]) | drug sensitivity score (CAL-120) | drug sensitivity score (CAL-148) | drug sensitivity score (CAL-85-1) | drug sensitivity score (HCC1599 [11]) | drug sensitivity score (HCC1937 [12]) | drug sensitivity score (HDQ-P1 [13]) | drug sensitivity score (MDA-MB-231) | drug sensitivity score (MDA-MB-436 [14]) | drug sensitivity score (MDA-MB-453) | drug sensitivity score (MDA-MB-468 [15]) | drug sensitivity score (MFM-223 [16]) | drug sensitivity score (SK-BR-3)
1 | CC(C)(C)Cn1c(N)nc2ccc(-c3[nH]c(C(C)(C)C)nc3-c3ccc(F)cc3)nc21 | 0 | 0 | 0 | 0 | 0 | 0 | 0 | 0 | 2.7 | 0 | 0 | – | – | – | – | – | – | – | – | – | – | – | – | – | – | –
2 | Cn1cc(C[C@@H](N)C(=O)O)c2ccccc21 [1-methyl-D-tryptophan] | 0 | 0 | 0 | 0 | 0 | 0 | 1.12 | 0 | 0 | 1.22 | 0 | 3.13 | – | – | – | – | – | – | – | – | – | – | – | – | – | –
3 | CC[C@H](CC#N)OC(=O)N[C@@H](C)c1cccc(NC(=O)Nc2ccc(-c3cnco3)c(OC)c2)c1 [AVN944] | 0 | 0 | 5.68 | 0 | 0 | 0 | 0 | 0 | 0 | 0 | 0 | 12.6 | – | – | – | – | – | – | – | – | – | – | – | – | – | –
4 | Cc1c(N)nc([C@H](CC(N)=O)NC[C@H](N)C(N)=O)nc1C(=O)N[C@H](C(=O)N[C@H](C)[C@@H](O)[C@H](C)C(=O)N[C@H](C(=O)NCCc1nc(-c2nc(C(=O)NCCC[S+](C)C)cs2)cs1)[C@@H](C)O)[C@@H](OC1OC(CO)C(O)C(O)C1OC1OC(CO)C(O)C(OC(N)=O)C1O)c1cnc[nH]1 (stereo partly drawn) [Bleomycin] | 0 | 1.71 | 19.8 | 0 | 0 | 0 | 0 | 0 | 2.42 | 0 | 0 | – | 0 | 13.6 | 3.15 | 0 | 0 | 0 | 9.75 | 0 | 6.41 | 4.58 | 0 | 0 | 0 | 0
5 | CCCCCOC(=O)Nc1nc(=O)n([C@@H]2O[C@H](C)[C@@H](O)[C@H]2O)cc1F [Capecitabine] | 0 | 0 | 0 | 0 | 0 | 0 | 0 | 0 | 0 | 0 | 3.74 | – | 0 | 0 | 0 | 0 | 0 | 0 | 0 | 0 | 0 | 0 | – | 0 | 0 | –
6 | CCN(CC)CCOc1ccc(C(=C(Cl)c2ccccc2)c2ccccc2)cc1 [Clomifene] | 5.14 | 0 | 0 | 1.43 | 1.4 | 8.71 | – | 3.53 | 0 | 0 | 9.19 | 7.35 | 2.94 | 3.64 | 3.83 | 0 | 1.08 | 0 | 1.23 | 1.07 | 5.53 | 2.07 | 3.38 | 4.91 | 2.02 | 0
7 | CCc1cnn2c(NCc3ccc[n+]([O-])c3)cc(N3CCCC[C@H]3CCO)nc12 [Dinaciclib] | 3.72 | 0 | 8.81 | 0 | 5.57 | 0 | 11.4 | 6.99 | 0 | 19.6 | 13.1 | 12.4 | – | – | – | – | – | – | – | – | – | – | – | – | – | –
8 | Cc1c(C(=O)Nc2ccc(N3C[C@@H](C)O[C@@H](C)C3)nc2)cccc1-c1ccc(OC(F)(F)F)cc1 [Erismodegib] | 0 | 0 | 0 | 0 | 0 | 0 | 0 | 0 | 0 | 0 | 0 | 0 | – | – | – | – | – | – | – | – | – | – | – | – | – | –
9 | COc1cc(Nc2ncc(F)c(Nc3ccc4c(n3)N(COP(=O)(O)O)C(=O)C(C)(C)O4)n2)cc(OC)c1OC [Fostamatinib] | 0 | 11.4 | 3.3 | 0 | 0 | 0 | 0 | 0 | 0 | – | 0 | 3.65 | – | – | – | – | – | – | – | – | – | – | – | – | – | –
